One assay has as its system rat aortas. The assay can be described thus: Contraction of rat aortas induced by potassium depolarization (hyperpotassium medium). Details: species or system WISTAR rat. As to conditions: 80 mM KCl, 37 mM NaCl, read-out: IC50 (concentration inhibiting by 50% the contraction of rat aortas induced by potassium depolarization). An excerpt:
The rings are linked to a STATHAM tension sensor (UC2-GOULD).

The subject of the next assay is rabbit aortas. The assay can be described thus: Contraction of rabbit aortas induced by noradrenaline in a medium without calcium. Further details: species or system New Zealand rabbit. The settings on record: Oryctolagus cuniculus, 0.5 h, rabbit aorta, incubated 30 minutes; for inhibition at 1 µM: compound 10^-6 M; for inhibition at 0.1 µM: compound 10^-7 M. On the procedure:
Studies are carried out on rings, 3 mm in length, […] The vascular rings are immersed in a normal physiological solution or in a physiological solution lacking calcium (+0.2 mM of the chelating agent EGTA), which is thermostatically regulated at 37° C. and aerated with a 95% O2 +5% CO2 mixture. The rings are linked to a STATHAM tension sensor (UC2-GOULD). The optimal tension for each vessel is applied and a stabilization period of 90 min is observed for the preparations. b) Antivasoconstrictive activity of the compounds of the invention in a medium without calcium.

The structures appear in SMILES notation. Structures can show the parent of a compound that is named as a salt.

For `CN(C1CCN(CCCCOc2ccc([N+](=O)[O-])cc2)CC1)S(=O)(=O)c1cccc2cnccc12` [Example 2, N-Methyl-N-{1-[4-(p-nitrophenoxy)butyl]-4-piperidyl}-5-isoquinolinesulfonamide fumarate], the IC50 in the assay with rat aortas came out at 1300 nM. Further, the inhibition at 1 µM in the assay on rabbit aortas was 12%.

On to `CN(C1CCN(CCCCOc2ccccc2)CC1)S(=O)(=O)c1cccc2cnccc12` [Example 3, N-Methyl-N-{1-[4-(phenoxy)butyl]4-piperidyl}-5 isoquinolinesulfonamide fumarate], for which, in the assay on rat aortas, the IC50 was 1700 nM. Also, the inhibition at 1 µM with rabbit aortas was found to be 47%.

Turning to `CN(C1CCN(CCCCOc2ccc(Cl)cc2)CC1)S(=O)(=O)c1cccc2cnccc12` [Example 6, N-Methyl-N-{1-[4-(p-chlorophenoxy)butyl4-piperidyl}-5-isoquinolinesulfonamide hydrochloride], the IC50 with rat aortas is 1100 nM. Moreover, the inhibition at 1 µM in the assay on rabbit aortas was 18%.

Turning to `COc1ccc(OCCCCN2CCC(N(C)S(=O)(=O)c3cccc4cnccc34)CC2)cc1` [Example 7, N-Methyl-N-{1-[4-(p-methoxyphenoxy)butyl]-4-piperidyl}-5-isoquinolinesulfonamide hydrochloride], in the assay with rat aortas, the IC50 is 1900 nM. For the same compound, the inhibition at 1 µM in the assay with rabbit aortas was determined as 13%.

`CN(C1CCN(CCCCOc2ccc(C#N)cc2)CC1)S(=O)(=O)c1cccc2cnccc12` [Example 8, N-Methyl N-{1-[4-(p-cyanophenoxy)butyl]4-piperidyl}-5-isoquinolinesulfonamide dihydrochloride]: the IC50 with rat aortas was found to be 950 nM.

In the case of `CN(C1CCN(CCCCSc2ccc(F)cc2)CC1)S(=O)(=O)c1cccc2cnccc12` [Example 12, N-Methyl-N-{1-[4-(p-fluorophenylthio)butyl]-4-piperidyl}-5-isoquinolinesulfonamide dihydrochloride], the IC50 in the assay with rat aortas came out at 1300 nM. For the same compound, the inhibition at 1 µM in the assay with rabbit aortas is 19%.

As for `O=S(=O)(NC1CCN(CCCCOc2ccc(F)cc2)CC1)c1cccc2cnccc12` [Example 13, N-{1-[4-(p-fluorophenoxy)butyl]4-piperidyl)}-5-isoquinolinesulfonamide dihydrochloride], in the assay on rat aortas, the IC50 is 2900 nM. In the assay with rabbit aortas, the inhibition at 1 µM amounted to 42%.

As to `O=S(=O)(NCC1CCN(CCCOc2ccc(F)cc2)CC1)c1cccc2cnccc12` [Example 15, N-{[1-[3-(p-Fluorophenoxy)propyl]-4-piperidyl]methyl}-5-isoquinolinesulfonamide], in the assay with rat aortas, the IC50 was determined as 3500 nM. Besides, in the assay with rabbit aortas, the inhibition at 1 µM turned out to be 59%.

Take `CN(CC1CCN(CCCOc2ccccc2)CC1)S(=O)(=O)c1cccc2cnccc12` [Example 19, N-Methyl-N-{[1-[3-(phenoxy)propyl]-4-piperidyl]methyl}-5-isoquinolinesufonamide]: the IC50 in the assay with rat aortas was 2800 nM. In the assay on rabbit aortas, the inhibition at 1 µM turned out to be 67% and the inhibition at 0.1 µM was 31%.

Consider `CN(CC1CCN(CCCCOc2ccc(F)cc2)C1)S(=O)(=O)c1cccc2cnccc12` (stereo not shown) [Example 21, N-Methyl-N-{[1-[4-(p-fluorophenoxy)butyl]-3-pyrrolidinyl]methyl}-5-isoquinolinesulfonamide dihydrochloride], for which, in the assay on rat aortas, the IC50 worked out at 1900 nM. In addition, in the assay with rabbit aortas, the inhibition at 1 µM amounted to 73% and the inhibition at 0.1 µM came to 17%.

`CN(CC1CCN(CCCOc2ccc(F)cc2)C1)S(=O)(=O)c1cccc2cnccc12` (stereo not shown) [Example 22, N-Methyl-N-{[1-[3-(p-fluorophenoxy)propyl]-3-pyrrolidinyl]methyl}-5-isoquinolinesulfonamide dihydrochloride]: in the assay on rat aortas, the IC50 worked out at 3600 nM. In the assay on rabbit aortas, the inhibition at 1 µM turned out to be 82% and the inhibition at 0.1 µM turned out to be 43%.

`O=S(=O)(NCC1CCN(CCCNc2ccc(F)cc2)CC1)c1cccc2cnccc12` [Example 24, N-{[1-[3-(p-fluorophenylamino)propyl]-4-piperidyl]methyl}-5-isoquinolinesulfonamide fumarate]: in the assay with rat aortas, the IC50 came to 4500 nM. Also, in the assay with rabbit aortas, the inhibition at 1 µM was 67% and the inhibition at 0.1 µM was determined as 38%.

Consider `CN(CC1CCN(CCCNc2ccc(F)cc2)CC1)S(=O)(=O)c1cccc2cnccc12` [Example 25, N-Methyl-N-{1-[3-(p-fluorophenylamino)propyl]-4-piperidyl]methyl}-5-isoquinolinesulfonamide fumarate], for which, in the assay on rabbit aortas, the inhibition at 1 µM was found to be 77% and the inhibition at 0.1 µM is 22%.

`CCN(C1CCN(CCCCOc2ccc(F)cc2)CC1)S(=O)(=O)c1cccc2cnccc12` [Example 26, N-Ethyl-N-{1-[4-(p-fluorophenoxy)butyl]-4-piperidyl}-5-isoquinolinesulfonamide dihydrochloride]: in the assay on rat aortas, the IC50 stood at 5300 nM. The inhibition at 1 µM in the assay on rabbit aortas is 26%.
